Experimental data as given in publication PMC5458179, “Oxidative DNA double strand breaks and autophagy in the antitumor effect of sterically hindered platinum(II) complexes in NSCLCs” (Oncotarget, 2017).
Read-outs that look alike come from different tables or passages of the source.

Tests used:
NCI-H1299 = assay: MTT cytotoxicity assay; type: cell-based, human
Procedure: (§1) The results reveal that the steric hindrance plays a significant role in the cytotoxicity of complex 3.
(§2) The effects of complex 3 on the viability of NSCLC cancer cells including A549 and NCI-H1299 were detected respectively via MTT assays at time points of 12, 24, 48 and 72 h (Figure 2A). The results shown that complex 3 could inhibit the viability of the NSCLC cells.
(§3) Human cancer cell lines HepG2, SGC-7901, HCT-116, A549, NCI-H1299 and MCF-7 as well as normal liver cell line L02 were purchased from the Cell Bank of Shanghai Institute of Cell Biology. Among them, MCF-7, HepG2 cells were cultured at 37 °C in 5% CO2 with DMEM supplemented with 10% fetal bovine serum (FBS) (Hyclone, Lifescience, USA) and 1% penicillin/streptomycin (Beyotime, Nantong, China), while HCT-116, SGC-7901, A549, NCI-H1299 and L02 cells were cultured at 37 °C in 5% CO2 with RPMI-1640 supplemented with 10% FBS and 1% penicillin/streptomycin. Cells were passed every 2 days and restarted from frozen stocks upon reaching pass number 20.
(§4) In vitro cytotoxicity of the platinum compounds against human hepatocellular carcinoma (HepG-2), gastric carcinoma (SGC-7901), non-small-cell lung cancer (A549), and colorectal cancer (HCT-116) cell lines were measured by the MTT assays. Briefly, the cells were seeded in 96-well cultured plates at a density of 5000 cells/well. After overnight incubation (16 h), the cells were treated with the platinum complexes. After 48 h of incubation, 10 μL of a freshly diluted 3-(4,5-dimethyl-2-thiazolyl)-2,5-diphenyl-2H-tetrazolium bromide (MTT) solution (5 mg/mL) were added to each well and the plates were incubated at 37 °C in a humidified 5% CO2 atmosphere for 4 h. At the end of the incubation period the medium was removed and the formazan product was dissolved in 150 μL of DMSO. The cell viability was evaluated by measurement of the absorbance at 490 nm, using an Absorbance Reader (BioRad). IC50 values (compound concentration that produces 50% of cell growth inhibition) were calculated from curves constructed by plotting cell survival inhibitory rate (%) versus drug concentration logarithm. All experiments were repeated in three times. The reading values were converted to the percentage of control (% cell survival). Cytotoxic effects were expressed as IC50 values.

A549 = assay: MTT cytotoxicity assay; type: cell-based, human; details: 48 h drug exposure
Procedure: as §1, §2, §3, §4

A549 cells = assay: Annexin V-FITC/PI apoptosis assay (flow cytometry); type: cell-based, human; details: A549, 50 μM for 24 h (figure legend and method: 10 μM)
Procedure: (§5) Apoptosis is a crucial programmed death form of aging or damaged cells. […] To further explore the impact of complex 3 on long-term clonogenic survival, colony formation assay was performed.
(§6) Annexin V-FITC apoptosis detection kit (Keygen, Jiangsu, China) assay was performed according to the manufacturer's protocol. […] Then the cells were collected, resuspended in binding buffer (pH 7.5, 10 mM HEPES, 2.5 mM CaCl2 and 140 mM NaCl), incubated with Annexin V-FITC and then PI for 10 min in the dark at room temperature, the processed cells were analyzed by flow cytometry (FACSCalibur, Becton Dickinson) and a computer station running Cell-Quest software. (BD Biosciences, Franklin Lakes, NJ).

NCI-H1299 cells = assay: Annexin V-FITC/PI apoptosis assay (flow cytometry); type: cell-based, human; details: NCI-H1299, 50 μM for 24 h (figure legend and method: 10 μM)
Procedure: as §5, §6

[1] = Pharmacokinetics, Pt in rat plasma after intravenous administration; type: in vivo, SD rats
Procedure: The pharmacokinetic profile of complex 3 was performed as compared with cisplatin. […] A non-compartment model was applied to analyze changes of pharmacokinetic behaviors. […] The results could be attributed to the biodistribution of the complex 3 in normal tissues as well as retention in blood circulation.
0.6 ml of blood compounds were collected from orbital cavity at 5 min followed by 0.5, 1, 2, 4, 8, 12 and 24 h after intravenous administration, heparinized and then centrifuged at 4000 rpm for 20 min at 4°C. The supernatant plasma was collected for measurement of Pt content using ICP-MS. The apparent plasma half-life time was calculated using a Phoenix Win Nonlin 6.3 Program (Pharsight Cooperation, St. Louis Missouri, USA).

A549 xenograft tumors = details: for tumor growth inhibition rate: 5 mg/kg i.v., complex 3 once every three days, oxaliplatin twice a week, tumor weight at end
Procedure: To evaluate the anti-tumor effect of complex 3 in vivo, an xenografts nude mice model of A549 cancer cells was performed. […] At the end of treatments, the tumor weight was measured to detect the antitumor activity of these measured groups. […] Because platinum-based drugs are well known for their toxic effects on the mean bodyweights of treated animals, the toxicity of complex 3 in the body weights of mice was assayed. […] The mice treated with the tested complex 3 were selected for histological analyses.
Thirty-five nude mice (BALB/c) with body weight range from 18–22 g, were supplied by Shanghai Laboratory Animal Center, China Academy of Sciences. Experimental protocols were in accordance with National Institutes of Health regulations and approved by the Institutional Animal Care and Use Committee. All animals were randomly divided into 5 groups. The A549 single-cell suspension in PBS (1×10^7 cells per mouse) was injected subcutaneously into the right oxter of nude mice. […] The control group was administered glucose. The tumor growth was monitored by measuring the perpendicular diameter of the tumor using calipers every two days and calculated according to the formula:
Tumor volume (mm^3) = 0.5 × length × width^2
Growth curves were plotted using the average tumor volume within each experimental group at the set time points. The whole group of mice was sacrificed after the last treatment, then tumor weight was evaluated as the antitumor activity of the corresponding groups, and the kidneys, livers and tumors were excised for immunohistochemistry analysis. The body weight and physical state of the mice were measured simultaneously as an indicator of systemic toxicity.

[2] = 48 h drug exposure, read-out: IC50 NCI-H1299

Compound | IC50 (NCI-H1299; 24 h, 2 to 128 μM, read-out: IC50 NCI-H1299 exposed for 24 h) | IC50 (NCI-H1299; [2]) | IC50 (A549) | early and median apoptotic cells (A549 cells) | early and median apoptotic cells (NCI-H1299 cells) | late apoptotic cells (NCI-H1299 cells) | t1/2, Pt concentration-time profile in rat plasma ([1]; rat, in vivo, iv, 5 mg/kg) | tumor volumes (A549 xenograft tumors; 5 mg/kg i.v. once every three days) | tumor growth inhibition rate (A549 xenograft tumors) | expressions of LC3 in tumor tissues (A549 xenograft tumors; immunoblotting) | bodyweights of mice during treatment (A549 xenograft tumors; mouse, in vivo) | t1/2, Pt concentration-time profile in rat plasma ([1]; rats, intravenous, 5 mg/kg oxaliplatin or equivalent dose)
CC(C)C[NH+]1[C@@H]2CCCC[C@H]2[NH+](CC(C)C)[Pt-2]12[O]C(=O)CC(=O)[O]2 (stereo partly drawn) [Complex 3] | 7.42 µM | 20.9 ± 1.36 µM | 14.2 ± 1.22 µM | 0.94% | 9.77% | 27.51% | ~ 24.5 h | significantly decreased | 67.96% | increased expressions of LC3 in tumor tissues | increase of bodyweights | –
O=C1[O][Pt]2([NH][C@@H]3CCCC[C@H]3[NH]2)[O]C1=O [Oxaliplatin, oxaliplatin, reference compound] | – | 62.4 ± 2.35 µM | 112 ± 11.3 µM | 29.50% | 10.27% | 15.98% | – | – | 34.48% | – | – | ~ 13.1 h
